Measurements from PMC10285648, “iTAG an optimized IMiD-induced degron for targeted protein degradation in human and murine cells” (iScience, 2023).

Test system: N and C-terminally tagged KRAS^[G12V] and EZH2 (DCD23)
Assay: Flow cytometry of EGFP signal, DCD23-tagged KRAS G12V and EZH2 in HMEC
Format: cell-based, human
Details: 10uM, 4h
Excerpt: We tagged the proteins with DCD23 constructs, fused either to their N-terminus or C-terminus (Figures 2A and 2B). We stably transduced HMEC cells with these constructs and assessed their degradation. Cellular treatment with all degraders led to a decrease in the EGFP signal of the N and C-terminally tagged KRAS^[G12V] and EZH2 (Figures 2A and 2B).
Figure 2 Degradation of cytoplasmic and nuclear targets using iTAG (A) HMEC cells expressing N-terminally tagged DCD23-EGFP-KRAS^[G12V], DCD23-EGFP-EZH2, DCD23-EGFP-cMYC or their corresponding P2A control were induced with doxycycline for 24h then treated with either DMSO or the different indicated drugs at a concentration of 10uM for 4h. Median EGFP intensity was measured in each condition using flow cytometry and normalized values were represent in the Log2 Fold change relative to the DMSO control. […] Median EGFP intensity was measured in each condition using flow cytometry and normalized values were represent in the Log2 Fold Change relative to the DMSO control. […]
Cells stably transduced with the iTAG tagged constructs were treated with 1 μg/mL of doxycycline for 24h to induce constructs expression. […] EGFP signal was measured using BD LSR II flow cytometer (BD Biosciences). […]

## O=C1CC[C@H](N2Cc3c(OCc4ccc(CN5CCOCC5)cc4)cccc3C2=O)C(=O)N1 [CC220, Iberdomide]
  change of EGFP signal: most active degrader
